From US20120094998A1, “Oligomer-Protein Tyrosine Kinase Inhibitor Conjugates” (Nektar Therapeutics, priority 2009, published 2012)
In brackets after ≈: the same amount, converted by molar mass.

Legend:
[1] = Caco-2 permeability (bi-directional; pH 7.4/pH 7.4); assay type: in vitro ADME; conditions: human; for Papp A→B at 120 min, 10 μM: Caco-2, pH 7.4, read-out: Permeability (cm^2/s × 10^6); for efflux ratio at 120 min, 10 μM: Caco-2, ratio of B-A and A-B permeabilities
Protocol: Caco-2 cells are used as an in vitro model of the human intestinal epithelium and permit assessment of the intestinal permeability of potential drugs. Test compound is added to either the apical or basolateral side of a confluent monolayer of Caco-2 cells and permeability is measured by monitoring the appearance of the test compound on the opposite side of the membrane using LC-MS/MS. Apparent permeability (Papp) coefficients, efflux ratio for the test compound and recovery values were determined.
To measure the permeability of test compound in the apical to basolateral (A-B) and basolateral to apical (B-A) direction across Caco-2 cells.
Caco-2 cells obtained from the ATCC are used between passage numbers 40-60. Cells are seeded on to Millipore Multiscreen Caco-2 plates at 1×10^5 cells/cm^2. They are cultured for 20 days in DMEM and media is changed every two or three days. On day 20 the permeability study is performed.
On day 20, the monolayers are prepared by rinsing both basolateral and apical surfaces twice with HBSS at 37° C. Cells are then incubated with HBSS in both apical and basolateral compartments for 40 min to stabilize physiological parameters. HBSS is then removed from the apical compartment and replaced with test compound dosing solutions. […] The fluorescent integrity marker lucifer yellow is also included in the dosing solution. Analytical standards are made from dosing solutions. The apical compartment inserts are then placed into ‘companion’ plates containing fresh HBSS. For basolateral to apical (B-A) permeability determination the experiment is initiated by replacing buffer in the inserts then placing them in companion plates containing dosing solutions. At 120 minutes the companion plate is removed and apical and basolateral samples diluted for analysis by LC-MS/MS. Test compound permeability was assessed in duplicate. On each plate, compounds of known permeability characteristics were run as controls.
Test and control compounds were quantified by LC-MS/MS cassette analysis using a 5-point calibration with appropriate dilution of the samples. Cyprotex generic analytical conditions were used. The starting concentration (C0) and experimental recovery were calculated from both apical and basolateral compartment concentrations.
The integrity of the monolayers throughout the experiment was checked by monitoring lucifer yellow permeation using fluorimetric analysis. Lucifer yellow permeation is low if monolayers have not been damaged. […] If lucifer yellow Papp values are above QC limits in both replicate wells for a test compound, the compound was re-tested.
Data Analysis: The permeability coefficient for each compound (Papp) is calculated from the following equation: […]
wherein dQ/dt is the rate of permeation of the drug across the cells, C0 is the donor compartment concentration at time zero and A is the area of the cell monolayer. C0 is obtained from analysis of donor and receiver compartments at the end of the incubation period. It is assumed that all of the test compound measured after 120 minutes incubation was initially present in the donor compartment at 0 minutes. An efflux ratio (ER) is derived as follows:
Talinolol (a known P-gp substrate) is also included as a control compound to assess whether functional P-gp is present in the Caco-2 cell monolayer.

ABL = ABL (Homo sapiens, UniProt P00519); assay: Off-chip mobility-shift kinase assay (Caliper LABCHIP), ABL; conditions: for ABL AVG % Activity at 1.0E−06: concentration 1.0E−06; for ABL AVG % Activity at 1.0E−06 / ABL AVG % Activity at 1.0E−07 / ABL AVG % Activity at 1.0E−08 / ABL AVG % Activity at 1.0E−09 / ABL AVG % Activity at 1.0E−10 / ABL AVG % Activity at 3.0E−06 / ABL AVG % Activity at 3.0E−07 / ABL AVG % Activity at 3.0E−08 / ABL AVG % Activity at 3.0E−09 / ABL AVG % Activity at 3.0E−10: imatinib-corresponding compounds; for ABL AVG % Activity at 1.0E−07: concentration 1.0E−07; for ABL AVG % Activity at 1.0E−08: concentration 1.0E−08; for ABL AVG % Activity at 1.0E−09: concentration 1.0E−09; for ABL AVG % Activity at 1.0E−10: concentration 1.0E−10; for ABL AVG % Activity at 3.0E−06: concentration 3.0E−06; for ABL AVG % Activity at 3.0E−07: concentration 3.0E−07; for ABL AVG % Activity at 3.0E−08: concentration 3.0E−08; for ABL AVG % Activity at 3.0E−09: concentration 3.0E−09; for ABL AVG % Activity at 3.0E−10: concentration 3.0E−10
ABL, sequence (P00519 whole entry): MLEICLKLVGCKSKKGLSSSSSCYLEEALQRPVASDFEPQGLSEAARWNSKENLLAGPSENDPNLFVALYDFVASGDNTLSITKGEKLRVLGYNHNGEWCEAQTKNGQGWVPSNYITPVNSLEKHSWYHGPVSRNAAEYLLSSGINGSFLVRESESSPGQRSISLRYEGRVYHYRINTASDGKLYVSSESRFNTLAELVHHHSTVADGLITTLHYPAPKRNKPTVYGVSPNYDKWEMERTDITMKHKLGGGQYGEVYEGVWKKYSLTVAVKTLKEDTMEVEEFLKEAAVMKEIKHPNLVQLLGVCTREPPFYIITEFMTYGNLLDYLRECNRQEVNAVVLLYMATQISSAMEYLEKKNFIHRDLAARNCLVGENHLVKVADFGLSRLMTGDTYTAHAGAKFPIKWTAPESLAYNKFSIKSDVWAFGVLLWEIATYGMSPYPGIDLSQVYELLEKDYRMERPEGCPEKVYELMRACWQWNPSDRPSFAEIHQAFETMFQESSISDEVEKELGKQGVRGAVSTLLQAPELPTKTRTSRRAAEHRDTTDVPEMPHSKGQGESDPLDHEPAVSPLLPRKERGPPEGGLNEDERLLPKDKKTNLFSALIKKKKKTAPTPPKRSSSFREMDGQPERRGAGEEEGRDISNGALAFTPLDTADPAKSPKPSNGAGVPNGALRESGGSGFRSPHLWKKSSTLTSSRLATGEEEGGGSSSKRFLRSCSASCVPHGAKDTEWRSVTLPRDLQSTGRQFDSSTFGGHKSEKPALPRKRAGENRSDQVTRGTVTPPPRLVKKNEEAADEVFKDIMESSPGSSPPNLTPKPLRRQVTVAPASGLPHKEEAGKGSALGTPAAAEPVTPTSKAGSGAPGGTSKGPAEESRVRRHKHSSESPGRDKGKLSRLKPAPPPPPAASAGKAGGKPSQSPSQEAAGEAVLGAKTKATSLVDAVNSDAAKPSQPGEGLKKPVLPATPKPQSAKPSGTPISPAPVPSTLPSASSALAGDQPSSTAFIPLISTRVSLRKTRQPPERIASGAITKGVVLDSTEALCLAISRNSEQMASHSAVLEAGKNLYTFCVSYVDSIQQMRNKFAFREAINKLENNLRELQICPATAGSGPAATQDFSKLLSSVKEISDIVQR

Thermodynamic solubility = assay type: physicochemical; conditions: aqueous buffer, thermodynamic from solid; phosphate buffered saline, pH 7.4; ambient temperature overnight
Protocol: Test compound (2.5 mg of solid; n=1) is weighed in a clear glass vial and buffer (0.5 mL) is added (phosphate buffered saline, pH 7.4). The solution is agitated at ambient temperature overnight using a vial roller system. […] Duplicate aliquots (50 μL) are sampled from the filtrate and diluted with one volume of 0.1 N hydrochloric acid and methanol (1:1 v/v) before analysis by HPLC-UV. […] The concentration of test compound in the filtrate is quantified relative to the concentration standard.
Analysis is performed using a gradient HPLC-UV system with a total cycle time of six minutes.

cKIT = cKIT (Homo sapiens, UniProt P10721); assay: Off-chip mobility-shift kinase assay (Caliper LABCHIP), C-kit; conditions: for C-kit AVG % Activity at 1.0E−05: concentration 1.0E−05; for C-kit AVG % Activity at 1.0E−06: concentration 1.0E−06; for C-kit AVG % Activity at 1.0E−07: concentration 1.0E−07; for C-kit AVG % Activity at 1.0E−08: concentration 1.0E−08; for C-kit AVG % Activity at 3.0E−05: concentration 3.0E−05; for C-kit AVG % Activity at 3.0E−06: concentration 3.0E−06; for C-kit AVG % Activity at 3.0E−07: concentration 3.0E−07; for C-kit AVG % Activity at 3.0E−08: concentration 3.0E−08; for C-kit AVG % Activity at 3.0E−09: concentration 3.0E−09
cKIT, sequence (P10721 26-976): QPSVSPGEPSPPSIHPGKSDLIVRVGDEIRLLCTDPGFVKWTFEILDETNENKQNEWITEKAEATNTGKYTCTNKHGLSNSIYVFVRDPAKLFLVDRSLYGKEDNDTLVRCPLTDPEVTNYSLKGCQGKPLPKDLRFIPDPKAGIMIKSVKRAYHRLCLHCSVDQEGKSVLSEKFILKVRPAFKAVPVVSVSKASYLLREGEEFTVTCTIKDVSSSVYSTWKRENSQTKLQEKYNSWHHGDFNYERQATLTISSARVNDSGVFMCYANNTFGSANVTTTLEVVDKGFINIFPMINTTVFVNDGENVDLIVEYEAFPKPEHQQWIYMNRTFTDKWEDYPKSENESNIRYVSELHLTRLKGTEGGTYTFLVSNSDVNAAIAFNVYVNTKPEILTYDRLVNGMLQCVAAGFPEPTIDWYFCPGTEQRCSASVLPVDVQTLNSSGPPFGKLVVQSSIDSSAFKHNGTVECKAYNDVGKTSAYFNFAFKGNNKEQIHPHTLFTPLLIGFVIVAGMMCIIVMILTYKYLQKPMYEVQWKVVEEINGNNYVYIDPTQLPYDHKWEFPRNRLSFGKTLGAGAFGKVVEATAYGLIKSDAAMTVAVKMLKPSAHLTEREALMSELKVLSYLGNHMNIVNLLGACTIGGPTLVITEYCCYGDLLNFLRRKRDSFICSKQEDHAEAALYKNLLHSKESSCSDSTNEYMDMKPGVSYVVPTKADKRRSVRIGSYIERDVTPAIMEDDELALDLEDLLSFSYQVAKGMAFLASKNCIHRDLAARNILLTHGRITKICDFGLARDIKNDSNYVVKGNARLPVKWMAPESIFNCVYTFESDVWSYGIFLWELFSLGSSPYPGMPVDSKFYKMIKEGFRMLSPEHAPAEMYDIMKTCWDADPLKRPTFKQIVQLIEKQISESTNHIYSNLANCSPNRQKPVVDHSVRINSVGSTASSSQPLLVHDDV

PDGFRβ = PDGFRβ (Homo sapiens, UniProt P09619); assay: Off-chip mobility-shift kinase assay (Caliper LABCHIP), PDGFR; conditions: for PDGFR AVG % Activity at 1.0E−06: concentration 1.0E−06; for PDGFR AVG % Activity at 1.0E−07: concentration 1.0E−07; for PDGFR AVG % Activity at 1.0E−08: concentration 1.0E−08; for PDGFR AVG % Activity at 1.0E−09: concentration 1.0E−09; for PDGFR AVG % Activity at 1.0E−10: concentration 1.0E−10; for PDGFR AVG % Activity at 3.0E−06: concentration 3.0E−06; for PDGFR AVG % Activity at 3.0E−07: concentration 3.0E−07; for PDGFR AVG % Activity at 3.0E−08: concentration 3.0E−08; for PDGFR AVG % Activity at 3.0E−09: concentration 3.0E−09; for PDGFR AVG % Activity at 3.0E−10: concentration 3.0E−10
PDGFRβ, sequence (P09619 33-1106): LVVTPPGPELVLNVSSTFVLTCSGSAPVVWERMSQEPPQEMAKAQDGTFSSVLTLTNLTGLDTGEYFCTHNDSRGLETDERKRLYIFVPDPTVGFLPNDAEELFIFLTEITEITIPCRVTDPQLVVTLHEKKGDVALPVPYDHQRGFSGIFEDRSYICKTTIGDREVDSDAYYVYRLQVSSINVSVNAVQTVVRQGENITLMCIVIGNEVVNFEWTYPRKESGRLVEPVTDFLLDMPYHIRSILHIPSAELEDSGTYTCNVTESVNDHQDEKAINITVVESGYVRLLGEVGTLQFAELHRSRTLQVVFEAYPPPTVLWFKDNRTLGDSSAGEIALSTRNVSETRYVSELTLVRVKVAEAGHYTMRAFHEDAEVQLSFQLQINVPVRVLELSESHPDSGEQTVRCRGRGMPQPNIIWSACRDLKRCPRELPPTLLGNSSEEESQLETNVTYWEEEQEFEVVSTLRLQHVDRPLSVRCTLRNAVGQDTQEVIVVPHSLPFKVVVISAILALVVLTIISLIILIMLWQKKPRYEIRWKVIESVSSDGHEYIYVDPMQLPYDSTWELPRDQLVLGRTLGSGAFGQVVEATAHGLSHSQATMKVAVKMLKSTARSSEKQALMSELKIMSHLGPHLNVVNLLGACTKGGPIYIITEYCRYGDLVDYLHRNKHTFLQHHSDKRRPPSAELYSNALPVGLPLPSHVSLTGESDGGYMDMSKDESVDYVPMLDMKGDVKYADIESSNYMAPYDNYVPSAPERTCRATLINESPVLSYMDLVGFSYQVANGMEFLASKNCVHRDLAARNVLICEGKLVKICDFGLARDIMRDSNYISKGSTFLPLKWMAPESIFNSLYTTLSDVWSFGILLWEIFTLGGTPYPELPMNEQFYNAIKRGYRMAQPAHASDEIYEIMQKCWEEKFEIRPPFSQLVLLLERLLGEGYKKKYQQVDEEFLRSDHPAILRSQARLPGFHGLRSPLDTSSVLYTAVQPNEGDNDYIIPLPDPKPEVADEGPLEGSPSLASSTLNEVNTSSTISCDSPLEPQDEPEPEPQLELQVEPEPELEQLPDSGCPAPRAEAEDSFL

| SMILES | Papp A→B at 120 min, 10 μM [1] | efflux ratio at 120 min, 10 μM [1] | IC50 (ABL) | ABL AVG % Activity at 1.0E−06 (ABL) | ABL AVG % Activity at 1.0E−07 (ABL) | ABL AVG % Activity at 1.0E−08 (ABL) | ABL AVG % Activity at 1.0E−09 (ABL) | ABL AVG % Activity at 1.0E−10 (ABL) | ABL AVG % Activity at 3.0E−06 (ABL) | ABL AVG % Activity at 3.0E−07 (ABL) | ABL AVG % Activity at 3.0E−08 (ABL) | ABL AVG % Activity at 3.0E−09 (ABL) | ABL AVG % Activity at 3.0E−10 (ABL) | solubility (Thermodynamic solubility) | IC50 (cKIT) | C-kit AVG % Activity at 1.0E−05 (cKIT) | C-kit AVG % Activity at 1.0E−06 (cKIT) | C-kit AVG % Activity at 1.0E−07 (cKIT) | C-kit AVG % Activity at 1.0E−08 (cKIT) | C-kit AVG % Activity at 3.0E−05 (cKIT) | also measured |
| --- | --- | --- | --- | --- | --- | --- | --- | --- | --- | --- | --- | --- | --- | --- | --- | --- | --- | --- | --- | --- | --- |
| COCCOCCOCCOCCOCCNCc1ccc(C(=O)Nc2ccc(C)c(Nc3nccc(-c4cccnc4)n3)c2)cc1 [mPEG5-N-Imatinib] | 0.05 ± 0.02 ×10⁻⁶ cm/s | 560 | ≥ 3000 nM | 74% | 86% | 95% | 97% | 96% | 66% | 80% | 92% | 96% | 96% | 3400 µg/mL (≈ 5.27 mM) | 440 nM | 1% | 28% | 82% | 92% | 0% | C-kit AVG % Activity at 3.0E−06 (cKIT): 9%; C-kit AVG % Activity at 3.0E−07 (cKIT): 59%; C-kit AVG % Activity at 3.0E−08 (cKIT): 91%; C-kit AVG % Activity at 3.0E−09 (cKIT): 96%; IC50 (PDGFRβ): 220 nM; PDGFR AVG % Activity at 1.0E−06 (PDGFRβ): 9%; PDGFR AVG % Activity at 1.0E−07 (PDGFRβ): 62%; PDGFR AVG % Activity at 1.0E−08 (PDGFRβ): 94%; PDGFR AVG % Activity at 1.0E−09 (PDGFRβ): 90%; PDGFR AVG % Activity at 1.0E−10 (PDGFRβ): 92%; PDGFR AVG % Activity at 3.0E−06 (PDGFRβ): 0%; PDGFR AVG % Activity at 3.0E−07 (PDGFRβ): 37%; PDGFR AVG % Activity at 3.0E−08 (PDGFRβ): 85%; PDGFR AVG % Activity at 3.0E−09 (PDGFRβ): 100%; PDGFR AVG % Activity at 3.0E−10 (PDGFRβ): 92% |
| COCCOCCOCCOCCOCCOCCOCCNCc1ccc(C(=O)Nc2ccc(C)c(Nc3nccc(-c4cccnc4)n3)c2)cc1 | 0.04 ± 0.01 ×10⁻⁶ cm/s | 391 | ≥ 3000 nM | 73% | 90% | 94% | 97% | 97% | 59% | 82% | 94% | 96% | 97% | 3600 µg/mL (≈ 4.91 mM) | 1000 nM | 6% | 50% | 88% | 100% | 1% | C-kit AVG % Activity at 3.0E−06 (cKIT): 23%; C-kit AVG % Activity at 3.0E−07 (cKIT): 76%; C-kit AVG % Activity at 3.0E−08 (cKIT): 95%; C-kit AVG % Activity at 3.0E−09 (cKIT): 99%; IC50 (PDGFRβ): 230 nM; PDGFR AVG % Activity at 1.0E−06 (PDGFRβ): 13%; PDGFR AVG % Activity at 1.0E−07 (PDGFRβ): 67%; PDGFR AVG % Activity at 1.0E−08 (PDGFRβ): 96%; PDGFR AVG % Activity at 1.0E−09 (PDGFRβ): 93%; PDGFR AVG % Activity at 1.0E−10 (PDGFRβ): 97%; PDGFR AVG % Activity at 3.0E−06 (PDGFRβ): 0%; PDGFR AVG % Activity at 3.0E−07 (PDGFRβ): 39%; PDGFR AVG % Activity at 3.0E−08 (PDGFRβ): 100%; PDGFR AVG % Activity at 3.0E−09 (PDGFRβ): 99%; PDGFR AVG % Activity at 3.0E−10 (PDGFRβ): 93% |
| COCCOCCOCCOCCOCCOCCOCCOCCOCCN1CCN(Cc2ccc(C(=O)Nc3ccc(C)c(Nc4nccc(-c5cccnc5)n4)c3)cc2)CC1 [mPEG9-N′-Imatinib] | 0.05 ± 0.02 ×10⁻⁶ cm/s | 359 | 3800 nM | 69% | 84% | 93% | 97% | 97% | 49% | 79% | 89% | 96% | 97% | 2500 µg/mL (≈ 2.81 mM) | 550 nM | 2% | 35% | 82% | 91% | 0% | C-kit AVG % Activity at 3.0E−06 (cKIT): 12%; C-kit AVG % Activity at 3.0E−07 (cKIT): 64%; C-kit AVG % Activity at 3.0E−08 (cKIT): 92%; C-kit AVG % Activity at 3.0E−09 (cKIT): 95%; IC50 (PDGFRβ): 340 nM; PDGFR AVG % Activity at 1.0E−06 (PDGFRβ): 13%; PDGFR AVG % Activity at 1.0E−07 (PDGFRβ): 74%; PDGFR AVG % Activity at 1.0E−08 (PDGFRβ): 95%; PDGFR AVG % Activity at 1.0E−09 (PDGFRβ): 99%; PDGFR AVG % Activity at 1.0E−10 (PDGFRβ): 92%; PDGFR AVG % Activity at 3.0E−06 (PDGFRβ): 0%; PDGFR AVG % Activity at 3.0E−07 (PDGFRβ): 48%; PDGFR AVG % Activity at 3.0E−08 (PDGFRβ): 86%; PDGFR AVG % Activity at 3.0E−09 (PDGFRβ): 100%; PDGFR AVG % Activity at 3.0E−10 (PDGFRβ): 95% |
